Columns and labels:
[1] = test system: isolated canine neutrophils; assay: MPO secretion from isolated canine neutrophils stimulated with PMA + 8-Br-cGMP (FIG. 6, 10, 11); format: cell-based; conditions: FIG. 11; 8-Br-cGMP alone, until co-stimulation with PMA
From the text: The invention also relates to a new method for blocking any cellular exocytotic secretory process, especially those releasing inflammatory mediators from granules contained within inflammatory cells, whose stimulatory pathways involve the protein kinase C (PKC) substrate MARCKS protein and release of contents from membrane-bound vesicles. Specifically, the inventors have shown that stimulated release of the inflammatory mediator myloperoxidase from human (FIG. 6) or canine (FIG. 7) neutrophils can be blocked in a concentration-dependent manner by the MANS peptide. […] 10 or 100 μM of a control peptide (RNS) has no effect on MPO secretion. In FIG. 7, isolated neutrophils were stimulated to secrete myloperoxidase (MPO) with 100 nM PMA and 10 μM 8-Br-cGMP. […] 10 or 100 μM of a control peptide (RNS) has no effect on MPO secretion. Thus, the peptide may be used therapeutically to block the release of mediators of inflammation secreted from infiltrating inflammatory cells in any tissues. Many of these released mediators are responsible for the extensive tissue damage observed in a variety of chronic inflammatory diseases (i.e., respiratory diseases such as asthma, chronic bronchitis and COPD, inflammatory bowel diseases including ulcerative colitis and Crohn's disease, autoimmune diseases, skin diseases such as rosacea, eczema; and severe acne, arthritic and pain syndromes such as rheumatoid arthritis and fibromyalgia). This invention may be useful for treating diseases such as arthritis, chronic bronchitis, COPD and cystic fibrosis. This invention is accordingly useful for the treatment in both human and animal diseases, especially those affecting equines, canines, felines, and other household pets.
FIGS. 8-12 show MPO secretion for both humans and canines. In all of these experiments, isolated neutrophils were stimulated with LPS at a concentration of 1×10^−6 M for 10 minutes at 37° C. prior to adding the stimuli as indicated in the figures. The LPS primes the cells so they can respond to a secretagogue.
Isolation of PMNs from canine blood—The steps involved in isolating PMN include collecting 10 ml ACD anticoagulated blood. Then layering 5 ml on 3.5 ml PMN isolation media while ensuring that the PMN isolation media (IM) was at room temperature (RI). Next, the blood was centrifuged at room temperature for 30′, 550×g at 1700 RPMs. The low lower white band was transferred into 15 ml conical centrifuge tube (CCFT). Next, 2V HESS with 10% fetal bovine serum […] was added and centrifuged at room temperature for 10′, 400×g at 1400 RPMs. The pellet was then resuspended in 5 ml 1-1ESS with PBS. The cell suspension was added to 50 ml CCFT containing 20 ml of ice cold 0.88% NH4Cl and inverted two to three times. The resulting product was centrifuged for 10′, 800×g at 2000 RPMs, then aspirated and resuspended in 5 ml HBSS with FBS. The prep was examined by counting and cytospin and preferably for whole blood, the cell number should be between 10^9-10^11 cells and for PMNs, cell number should be between 2-4×10^7 cells. See generally, Wang et al., J. Immunol., “Neutrophil-induced changes in the biomechanical properties of endothelial cells: roles of ICAM-1 and reactive oxygen species,” 6487-94 (2000).
MPO Colorimetric Enzyme Assay—Samples were assayed for MPO activity in 96 well round bottom microtiter plates using a sandwich ELISA kit (R & D Systems, Minneapolis, Minn.). […]

[2] = test system: isolated human neutrophils; assay: MPO secretion from isolated human neutrophils stimulated with PMA + 8-Br-cGMP (FIG. 7, 8, 9); format: cell-based; conditions: FIG. 9; 8-Br-cGMP alone, until co-stimulation with PMA
[3] = test system: MARCKS phosphorylation in NHBE cells; assay: MARCKS phosphorylation in NHBE cells, radiolabeled immunoprecipitation assay; format: cell-based, human; conditions: 1 μM 8-Br-cGMP, 100 nM PMA
Description: Radiolabeled Immunoprecipitation Assay—When labeling with [^32P]phosphate, cells were preincubated for 2 h in phosphate-free Dulbecco's modified Eagle's medium containing 0.2% bovine serum albumin and then labeled with 0.1 mCi/ml [^32P]orthophosphate (9000 Ci/mmol, PerkinElmer Life Sciences) for 2 h. For labeling with [^3H]myristic acid or 3H-amino acids, cells were incubated overnight in medium containing 50 μCi/ml [^3H]myristic acid (49 Ci/mmol, PerkinElmer Life Sciences) or 0.2 mCi/ml [^3H]leucine (159 Ci/mmol, PerkinElmer Life Sciences) plus 0.4 mCi/ml [^3H]proline (100 Ci/mmol, PerkinElmer Life Sciences). Following labeling, cells were exposed to stimulatory reagents for 5 min. When an inhibitor was used, cells were preincubated with the inhibitor for 15 min prior to stimulation. At the end of the treatments, cells were lysed in a buffer containing 50 mM Tris-HCl (pH 7.5), 150 mM NaCl, 1 mM EDTA, 10% glycerol, 1% Nonidet P-40, 1 mM phenylmethylsulfonyl fluoride, 1 mM benzamidine, 10 μg/ml pepstatin A, and 10 μg/ml leupeptin. Trichloroacetic acid precipitation and scintillation counting may determine the radiolabeling efficiency in each culture. Immunoprecipitation of MARCKS protein was carried out according to the method of Spizz and Blackshear using cell lysates containing equal counts/min. Spizz et al., J. Biol. Chem. 271, 553-562 (1996). Precipitated proteins were resolved by 8% SDS-polyacrylamide gel electrophoresis and visualized by autoradiography. Anti-human MARCKS antibody (2F12) and nonimmune control antibody (6F6) were used in this assay.
To assess MARCKS or MARCKS-associated protein complexes in different subcellular fractions, radiolabeled and treated cells were scraped into a homogenization buffer (50 mM Tris-HCl (pH 7.5), 10 mM NaCl, 1 mM EDTA, 1 mM phenylmethylsulfonyl fluoride, 1 mM benzamidine, 10 μg/ml pepstatin A, 10 μg/ml leupeptin) and then disrupted by nitrogen cavitation (800 pounds/square inch for 20 min at 4° C.). Cell lysates were centrifuged at 600×g for 10 min at 4° C. to remove nuclei and unbroken cells. Post-nuclear supernatants were separated into membrane and cytosol fractions by ultracentrifugation at 400,000×g for 30 min at 4° C. The membrane pellet was solubilized in the lysis buffer by sonication. Immunoprecipitation was then carried out as described above.

[4] = test system: PP2A; assay: Protein phosphatase activity assay in NHBE cell lysates, PP2A; format: cell-based, human
Description: (§1) Protein Phosphatase Activity Assay—PP1 and PP2A activities were measured using a protein phosphatase assay system (Life Technologies, Inc.) as known in the art with slight modification. Huang et al., Adv. Exp. Med Biol. 396, 209-215 (1996). Briefly, NHBE cells were treated with 8-Br-cGMP or medium alone for 5 min. Cells were then scraped into a lysis buffer (50 mM Tris-HCl (pH 7.4), 0.1% β-mecaptoethanol, 0.1 mM EDTA, 1 mM benaamidine, 10 μg/ml pepstatin A, 10 μg/ml leupeptin) and disrupted by sonication for 20 s at 4° C. Cell lysates were centrifuged and the supernatants saved for phosphatase activity assay. The assay was performed using ^32P-labeled phosphorylase A as a substrate. Released ^32Pi was counted by scintillation. The protein concentration of each sample was determined by the Bradford assay. PP2A activity was expressed as the sample total phosphatase activity minus the activity remaining in the presence of 1 nM okadaic acid. PP1 activity was expressed as the difference between the activities remaining in the presence of 1 nM and 1 μM okadaic acid, respectively. Protein phosphatase activities were reported as nmol of Pi released per min/mg total protein.

[5] = test system: PP1; assay: Protein phosphatase activity assay in NHBE cell lysates, PP1; format: cell-based, human; conditions: NHBE cells after 8-Br-cGMP
Description: as §1

Nc1nc2c(nc(Br)n2[C@@H]2O[C@@H]3COP(=O)(O)O[C@H]3[C@H]2O)c(=O)[nH]1 [8-Br-cGMP]
MPO secretion from LPS-stimulated canine neutrophils [1]: little effect
MPO secretion from LPS-stimulated human neutrophils [2]: little effect
effect on MARCKS phosphorylation induced by PMA [3]: reversed
PP2A activity ([4]; NHBE cells after 8-Br-cGMP, from 0.1): 0.3 nmol/min/mg proteins
increase of PP2A activity ([4]; NHBE cells, 8-Br-cGMP as low as 0.1 μM, p<0.01): approximately 3 fold
PP1 activity [5]: remained unchanged

From patent publication US20230293629A1, “METHODS FOR ATTENUATING RELEASE OF INFLAMMATORY MEDIATORS AND PEPTIDES USEFUL THEREIN” (BIOMARCK PHARMACEUTICALS LTD., priority 2006, published 2023)
